“And” between values parts separate entries of the source, which are not always exact repeats. Identical values can stand only once. The source made the active and inactive calls.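 The calls were made as follows: active = compounds giving half or more protection of infected cells from virus-caused growth loss, again on retest; inactive = the rest.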
Tested on: CEM cells HIV-1 protection, formazan growth assay
Assay: NCI AIDS Antiviral Assay
Settings: for IC50: measured here: growth of uninfected CEM cells
How it was run: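 Human CEM cells, uninfected and HIV-1-infected, received five drug concentrations, and growth was read by soluble formazan assay. Compounds giving at least 50% protection were retested; reproducible 100% protection defined confirmed active.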

Molecule | EC50 | IC50 | outcome
O=C1CC2C=CC(O)C(C1)C2 (stereo unspecified) | > 200 µM | > 200 µM | 
c1ccc(C2=NCCN2)c(C2=NCCN2)c1 | > 200 µM | > 200 µM | 
Cc1ccc(S(=O)(=O)n2c(-c3ccccc3)c(-c3ccccc3)c3ccccc32)cc1 | > 50.1 µM | 38.9 µM | 
COc1cc(Nc2nc3ccccc3nc2C(=O)O)cc(OC)c1OC | > 200 µM | 8.91 µM | 
CC(=O)Nc1ccc(C2[C@H]3C(=O)N(c4ccc(Cc5ccc(N6C(=O)[C@@H]7ON(c8ccccc8)C(c8ccc(NC(C)=O)cc8)[C@@H]7C6=O)cc5)cc4)C(=O)[C@H]3ON2c2ccccc2)cc1 (stereo partly specified) | > 6.03 µM | > 6.03 µM | 
Nc1c(S(=O)(=O)c2ccc(Cl)cc2)c2nc3ccccc3nc2n2ccnc12 | 151 µM | > 200 µM | 
CCOC(=O)C(C(=O)OCC)=C1SC(=Nc2ccccc2)C(=Nc2ccccc2)N1c1ccccc1 | > 200 µM | 70.8 µM | 
CC12CCC(CC1(Cl)Cl)C2 (stereo unspecified) | > 200 µM | > 200 µM | 
Cc1ccnc2c1C(=O)C(=O)C=C2N1CCCC1 |  |  | inactive
CC1(C)OCC(C)(C)C(O)C1=O (stereo unspecified) | > 1450 µM | 977 µM | 
Cc1cn([C@@H]2C[C@H]2CO)c(=O)[nH]c1=O |  |  | inactive
CC(=O)Nc1cc(C(=O)Nc2cc(C(=O)Nc3cc(C(=O)Nc4cc(C(=O)Nc5cc(C(=O)NCCC(=O)NCCCN(C)C)n(C)c5)n(C)c4)n(C)c3)n(C)c2)n(C)c1 | > 174 µM | 26.9 µM | 
COc1c(O)cc2c(c1O)C(=O)C1=C(CCCC1)C2=O | > 97.7 µM | 12.3 µM | 
CCOC(=O)C(Cc1cccc2ccccc12)S(=O)(=O)c1ccc(C)cc1 (stereo unspecified) | > 66.1 µM | 18.6 µM | 
N#CCCN(c1ccc(/C=N/c2nc(-c3ccccc3)cs2)cc1)S(=O)(=O)c1ccccc1 | > 55 µM | > 55 µM | 
CCc1c(Cc2[nH]c(Cc3[nH]c(C=O)c(C)c3CC)c(CC)c2CC)[nH]c(C=O)c1C | > 200 µM | > 200 µM | 
CCOc1ccc(N=NC2C(=O)N(C(=O)CC(=O)Nc3ccc(C)cc3)N=C2C)cc1 (stereo unspecified) | > 200 µM | 10.5 µM | 
H-HSFNCGGEFFY-OH |  |  | inactive
CCOC(=O)Cc1ccc(-c2cn3c(n2)sc2ccccc23)cc1 | > 200 µM | > 200 µM | 
Cn1cc2ccccc2c1-c1nc(F)nc(Nc2ccc(N)cc2)n1 | > 15.5 µM | 7.94 µM | 
Cc1ccc(-c2c(C#N)c(-c3ccc(Cl)cc3)c(C#N)c(=O)n2NS(=O)(=O)c2ccc(C)cc2)cc1 | > 200 µM | 20.9 µM | 
COc1ccc(-c2nc3ccc([N+](=O)[O-])cc3c(=O)[nH]2)cc1 |  |  | inactive
COc1ccc(C)cc1NC(=O)C(Br)C(Br)C(=O)O (stereo unspecified) | > 200 µM | 13.5 µM | 

Molecule | EC50 | IC50 | outcome
CCn1cc(/C=C/C(C)c2cn(CC)c(=O)[nH]c2=O)c(=O)[nH]c1=O (stereo unspecified) |  |  | inactive
CN(C)NC(=O)NC12CC3CC(CC(C3)C1)C2 |  |  | inactive
O=c1[nH]c(=O)n(C2OC(CO)CC2F)cc1F (stereo unspecified) | > 200 µM | > 200 µM | 
O=S(=O)(O)CCCCBr | > 200 µM | > 200 µM | 
C/C(CCc1ccccc1)=N\Nc1ccc([N+](=O)[O-])cc1[N+](=O)[O-] | > 21.9 µM | > 21.9 µM | 
NC(=S)N/N=C1\CCCCc2ccccc21 |  |  | inactive
N#C/C(N)=C(\C#N)NC(=O)C(=O)N/C(C#N)=C(\N)C#N | 69.2 µM | > 200 µM | 
CN1CC(C)(C)C(=O)c2ccccc21 | > 200 µM | > 200 µM | 
COC1=CC(=O)c2cc(C)cc(-c3cc4ccc(=O)oc4cc3OC)c2C1=O |  |  | inactive
S=C(NNC1=NCCCCN1)Nc1ccc(Cl)cc1 | > 200 µM | 18.6 µM | 
Cc1c(NC(=O)C(C)(C)Br)c(=O)oc2c(C)c3occc(=O)c3cc12 | > 16.6 µM | > 16.6 µM | 
CS(=O)(=O)CS(=O)(=O)OCCCl | > 1050 µM | 182 µM | 
CC1(Cn2ccc(=O)[nH]c2=O)CC(C2(C)OCCO2)C(=O)O1 (stereo unspecified) | > 813 µM | > 813 µM | 
CCCN=C(NNC(N)=O)C(C)=O | > 1350 µM | 1100 µM | 
C/C(O)=C/c1nc2ccccc2n2nnnc12 | > 110 µM | > 110 µM | 
CC1(C)C2CCC(N)(C2)C1N (stereo unspecified) | > 200 µM | > 200 µM | 
CCc1noc(N)c1C#N | > 200 µM | 182 µM | 
Cc1ccc(Cc2nn(C)c(=O)n2N)cc1 |  |  | inactive
Nc1sccc1S(=O)(=O)c1ccsc1N | > 200 µM | 87.1 µM | 
COc1ccc2c(c1O)-c1c(OC)c(OC)cc3c1C(C2)N(C)CC3 (stereo unspecified) | > 200 µM | > 200 µM | 
O=C1c2cccc3cccc(c23)C(=O)N1c1ccc([N+](=O)[O-])cc1[N+](=O)[O-] | > 200 µM | 120 µM | 
Cn1cnc([N+](=O)[O-])c1Sc1nc2ncccc2[nH]1 | > 912 µM | 21.9 µM | 
CCOC(=O)COc1c(C)cc(SSc2cc(C)c(OCC(=O)OCC)c(C)c2)cc1C | > 200 µM | 12 µM | 

Molecule | EC50 | IC50 | outcome
CCC(COC(/C=C1/C=CC(=O)O1)COC(=O)c1ccccc1)c1ccccc1 (stereo unspecified) | > 115 µM | 77.6 µM | 
Nc1nc(N)c(N=O)c(Nc2cccc(Br)c2)n1 | > 200 µM | 8.51 µM | 
CCCCc1ccc(N=C(N)N)cc1 | > 200 µM | 28.8 µM | 
CN(C)CCC(/C=C/c1ccccc1)=N\Nc1ccc(Cl)cc1Cl |  |  | inactive
O=S(=O)(c1ccccc1)n1c(C(O)c2ccccc2)cc2ccccc21 (stereo unspecified) | > 200 µM | 17.8 µM | 
CC(=O)NC(CCCCN(Cc1ccccc1)C(=O)N(CCCl)N=O)C(=O)NCc1ccccc1 (stereo unspecified) | > 72.4 µM | > 72.4 µM | 
O=C(Sc1nnnn1-c1ccccc1)Sc1nnnn1-c1ccccc1 | 97.7 µM | 178 µM | 
CCOc1c(Cc2ccccc2)c(=O)n2c3ccccc3n3c(=O)n(C)c(=O)c1c23 | > 6.46 µM | > 6.46 µM | 
C=C1C(C)C2C(Cc3ccccc3)NC(=O)C23C(OC(C)=O)/C=C/C(C)(O)CC(C)C/C=C/C3C1O (stereo unspecified) | > 2 µM | 0.0977 µM | 
Cc1nnc2n1-c1ccc(Cl)cc1C(c1ccccc1)=[N+]([O-])C2 | > 398 µM | 355 µM | 
N#CC(/C(=N\NC(N)=S)C(=O)NC1C2CC3CC(C2)CC1C3)c1ccc(Cl)cc1 (stereo unspecified) | > 17 µM | > 17 µM | 
N#C/C(=C\c1ccc(O)c(O)c1)C(=O)NCCCCCNC(=O)/C(C#N)=C/c1ccc(O)c(O)c1 | > 200 µM | 11.5 µM | 
O=C(O)c1ccccc1SSc1ccccc1C(=O)O | 112 µM and > 589 µM and > 200 µM | 589 µM and > 589 µM and > 200 µM | 
CC(=O)O[C@@H]1CC(C)C2CC2C2=C(C(O)OC2O)[C@@H]1C(C)CCC=C(C)C (stereo partly specified) | > 69.2 µM | 58.9 µM | 
COc1ccc(C2=Nc3cc(C)c(C)cc3NC(c3ccccc3)C2)cc1 (stereo unspecified) | > 200 µM | 28.8 µM | 
CC1(C)CCC2(C)N(c3ccccc3)C(=O)ON12 (stereo unspecified) | > 200 µM | > 200 µM | 
CCCCCCCCCCCCCCCCCCOCC(COP(=O)([O-])OCC[N+](C)(C)C)OC (stereo unspecified) | > 10.2 µM | 2.45 µM | 
CCOC(=O)C1=C(C)C2C3C(=O)OC(=O)C3C1(C)C1C(=O)OC(=O)C21 (stereo unspecified) |  |  | inactive
COC(=O)c1c2oc3c(C(=O)OC)cccc3nc-2cc(N)c1=O |  |  | inactive
OCCN1c2ccccc2Sc2ccc(Cl)cc21 | > 200 µM | 61.7 µM | 
CCOC(=O)C1CCn2c(nc3c(=O)n(C)c(=O)n(C)c32)S1 (stereo unspecified) |  |  | inactive
Cc1cc(C)n(C2OC(CO)C(O)C(O)C2O)c(=S)c1C#N (stereo unspecified) | > 200 µM | > 200 µM | 
CCOC(=O)c1c(-c2ccc(Cl)cc2)c(C#N)c(=S)n(C2OC(COC(C)=O)C(OC(C)=O)C(OC(C)=O)C2OC(C)=O)c1-c1ccccc1 (stereo unspecified) | > 200 µM | 77.6 µM | 

Molecule | EC50 | IC50 | outcome
CCOC(=O)C1(C(=O)OCC)C[C@H](C)[C@](C)(O)C1 | > 200 µM | > 200 µM | 
CC12CC3C(CC1SCC(=O)O2)C3(C)C (stereo unspecified) | > 302 µM | > 302 µM | 
Cc1c(Cc2ccccc2)n(C(C)OCCN2C(=O)c3ccccc3C2=O)c(=O)[nH]c1=O (stereo unspecified) | > 200 µM | > 200 µM | 
CC(C)c1c(O[Si](C(C)C)(C(C)C)C(C)C)cc2c(c1O)CC[C@H]1C(C)(C)CCC[C@]21C | > 200 µM | 26.9 µM | 
CC1(C)OC[C@@H](C[C@H](O)COCc2ccccc2)O1 | > 200 µM | > 200 µM | 
CC(CCC(=O)O)c1ccc(Br)cc1 (stereo unspecified) |  |  | inactive
O=C(Nn1c(-c2ccccc2)nc2ccccc2c1=O)c1ccc([N+](=O)[O-])cc1 | > 200 µM | > 200 µM | 
COc1ccc(/C(Cl)=C(\C#N)c2ccc(OC)c(OC)c2)cc1OC | > 200 µM | 58.9 µM | 
ClC1OC(Cl)(Cl)C(Cl)(Cl)OC1(Cl)Cl (stereo unspecified) |  |  | inactive
CC(C)=CCN1CC(C)C(=O)Nc2ccccc21 (stereo unspecified) | 19.5 µM | 117 µM | 
Cn1c(-c2cccs2)cc(-c2ccccc2)c1-c1cccs1 | > 200 µM | > 200 µM | 
CCN(CC)CCCNc1nnc2c(=O)n(C)c(=O)n(C)c2n1 | > 200 µM | > 200 µM | 
CCOP(=O)(O)Cc1c(Cl)c(Cl)c(CP(=O)(O)OCC)c(Cl)c1Cl | > 200 µM | 132 µM | 
O=C1C=Cc2noc3cccc1c23 |  |  | inactive
CCOC(=O)Cn1c(=O)[nH]c(=O)c2c1ncn2Cc1ccccc1 | > 550 µM | 513 µM | 
O=S(=O)(NCCSSCCNS(=O)(=O)c1cccc2cccnc12)c1cccc2cccnc12 | > 200 µM | 10.7 µM | 
C=C1C(C2(C)C=CC(=O)OC3(C)COC(=O)CC32)C(OC=O)C(OC(=O)C(O)C(C)CC)C2(C)C(c3ccoc3)CC(OC(C)=O)C12O (stereo unspecified) |  |  | inactive
O=C(O)COc1ccc(C(=O)/C(SS/C(C(=O)c2ccc(OCC(=O)O)c(Cl)c2Cl)=C2\C=C(c3ccc(Cl)cc3)SS2)=C2/C=C(c3ccc(Cl)cc3)SS2)c(Cl)c1Cl |  |  | inactive
O=S(OC12CC3CC(CC(C3)C1)C2)c1cc(Cl)cc(Cl)c1OCc1ccccc1 (stereo unspecified) |  |  | inactive
O=P(CCOc1ccccc1OCCP(=O)(c1ccccc1)c1ccc2c(c1)OCCOCCOCCOCCO2)(c1ccccc1)c1ccc2c(c1)OCCOCCOCCOCCO2 (stereo unspecified) | > 263 µM | > 263 µM | 
Cc1cc(=O)oc2c(O)c(O)ccc12 | > 263 µM | 141 µM | 
